# Measurements reported in US20050070552A1, “Ion channel modulating activity I” (Cardiome Pharma Corp., priority 2003, published 2005).
# Read-outs that look alike come from different tables or passages of the source.
# What was measured:
# [1] = assay type: in vivo, rabbit
# Protocol: Briefly, continuous infusion of COMPOUND A was administered prior to continuous infusion of methoxamine and followed by clofilium. The incidence of TdP (the number of animals in which TdP occurred) was compared to experiments in which COMPOUND A was not infused.
# The following procedure was used: (1) Female NZW rabbits were weighed and anaesthetised initially with 35 mg/kg sodium pentobarbital via ear vein (60 mg/mL) using a sterile 23G 3/4 needle. Additional doses (in increments of 0.2-0.3 mL) were used if required to attain and maintain sufficient anaesthesia as determined by abolishment of eyelid reflex. Care was taken not to over anaesthetize as this could cause respiratory and cardiac arrest. (2) The anaesthetised rabbit was placed on a rabbit restraining board in the supine position and limbs were tied down. (3) The fur in the neck and inguinal region were wetted with water and trimmed down to the skin with scissors to facilitate dissection. Fur was placed in a water-filled beaker to prevent fur from becoming airborne. (4) The left or right femoral artery was cannulated with PE 50 tubing and attached to a pressure transducer to monitor blood pressure. (5) The right and left jugular veins were cannulated using PE-90 tubing for drug delivery via an infusion pump. (6) The left or right femoral vein was cannulated using PE-50 tubing for drug delivery via an infusion pump. (7) ECG leads were attached as follows: the ground lead was inserted subcutaneously into the femoral vein region; one lead was inserted subcutaneously near the apex of the heart and the third lead was placed in the open surgical area near the right jugular vein. (8) Control recordings of ECG and blood pressure were taken for 5 minutes to observe pre-drug effects. Recordings were continued throughout the entire experiment. (9) Arterial K^+ concentration was measured with the hand-held I-STAT blood-gas analyzer prior to infusion of arrhythmogenic agent and at the end of the experiment. […] Infusion was continued throughout the experiment. (11) After a further 5 minutes, methoxamine was administered at 20 μg/kg/min via the femoral vein. Methoxamine infusion was also continued throughout the experiment. (12) 10 minutes following the start of methoxamine infusion, clofilium was infused via a jugular vein. (13) In COMPOUND A-pretreated animals and controls, recording continued for 15 minutes regardless of whether TdP is seen or not. (14) A blood sample was collected when the experimental endpoint was reached, immediately after the infusion pumps were stopped.
# COMPOUND A was applied and examined as described. To analyze the data, the parameters measured are (1) incidence of TdP (2) duration of TdP episodes (3) arterial K^+ concentration, (4) PR, QRS and QTc intervals during normal sinus rhythm (until arrhythmias begin and determination is no longer possible), (5) BP, and (6) HR.
# [2] = tested on: isolated rabbit Purkinje fibers; details: 100 μM
# [3] = molecular target: human heart sodium channels (hH1) (Homo sapiens, UniProt Q14524); assay type: cell-based
# Sequence of human heart sodium channels (hH1) (Q14524 whole entry, looked up): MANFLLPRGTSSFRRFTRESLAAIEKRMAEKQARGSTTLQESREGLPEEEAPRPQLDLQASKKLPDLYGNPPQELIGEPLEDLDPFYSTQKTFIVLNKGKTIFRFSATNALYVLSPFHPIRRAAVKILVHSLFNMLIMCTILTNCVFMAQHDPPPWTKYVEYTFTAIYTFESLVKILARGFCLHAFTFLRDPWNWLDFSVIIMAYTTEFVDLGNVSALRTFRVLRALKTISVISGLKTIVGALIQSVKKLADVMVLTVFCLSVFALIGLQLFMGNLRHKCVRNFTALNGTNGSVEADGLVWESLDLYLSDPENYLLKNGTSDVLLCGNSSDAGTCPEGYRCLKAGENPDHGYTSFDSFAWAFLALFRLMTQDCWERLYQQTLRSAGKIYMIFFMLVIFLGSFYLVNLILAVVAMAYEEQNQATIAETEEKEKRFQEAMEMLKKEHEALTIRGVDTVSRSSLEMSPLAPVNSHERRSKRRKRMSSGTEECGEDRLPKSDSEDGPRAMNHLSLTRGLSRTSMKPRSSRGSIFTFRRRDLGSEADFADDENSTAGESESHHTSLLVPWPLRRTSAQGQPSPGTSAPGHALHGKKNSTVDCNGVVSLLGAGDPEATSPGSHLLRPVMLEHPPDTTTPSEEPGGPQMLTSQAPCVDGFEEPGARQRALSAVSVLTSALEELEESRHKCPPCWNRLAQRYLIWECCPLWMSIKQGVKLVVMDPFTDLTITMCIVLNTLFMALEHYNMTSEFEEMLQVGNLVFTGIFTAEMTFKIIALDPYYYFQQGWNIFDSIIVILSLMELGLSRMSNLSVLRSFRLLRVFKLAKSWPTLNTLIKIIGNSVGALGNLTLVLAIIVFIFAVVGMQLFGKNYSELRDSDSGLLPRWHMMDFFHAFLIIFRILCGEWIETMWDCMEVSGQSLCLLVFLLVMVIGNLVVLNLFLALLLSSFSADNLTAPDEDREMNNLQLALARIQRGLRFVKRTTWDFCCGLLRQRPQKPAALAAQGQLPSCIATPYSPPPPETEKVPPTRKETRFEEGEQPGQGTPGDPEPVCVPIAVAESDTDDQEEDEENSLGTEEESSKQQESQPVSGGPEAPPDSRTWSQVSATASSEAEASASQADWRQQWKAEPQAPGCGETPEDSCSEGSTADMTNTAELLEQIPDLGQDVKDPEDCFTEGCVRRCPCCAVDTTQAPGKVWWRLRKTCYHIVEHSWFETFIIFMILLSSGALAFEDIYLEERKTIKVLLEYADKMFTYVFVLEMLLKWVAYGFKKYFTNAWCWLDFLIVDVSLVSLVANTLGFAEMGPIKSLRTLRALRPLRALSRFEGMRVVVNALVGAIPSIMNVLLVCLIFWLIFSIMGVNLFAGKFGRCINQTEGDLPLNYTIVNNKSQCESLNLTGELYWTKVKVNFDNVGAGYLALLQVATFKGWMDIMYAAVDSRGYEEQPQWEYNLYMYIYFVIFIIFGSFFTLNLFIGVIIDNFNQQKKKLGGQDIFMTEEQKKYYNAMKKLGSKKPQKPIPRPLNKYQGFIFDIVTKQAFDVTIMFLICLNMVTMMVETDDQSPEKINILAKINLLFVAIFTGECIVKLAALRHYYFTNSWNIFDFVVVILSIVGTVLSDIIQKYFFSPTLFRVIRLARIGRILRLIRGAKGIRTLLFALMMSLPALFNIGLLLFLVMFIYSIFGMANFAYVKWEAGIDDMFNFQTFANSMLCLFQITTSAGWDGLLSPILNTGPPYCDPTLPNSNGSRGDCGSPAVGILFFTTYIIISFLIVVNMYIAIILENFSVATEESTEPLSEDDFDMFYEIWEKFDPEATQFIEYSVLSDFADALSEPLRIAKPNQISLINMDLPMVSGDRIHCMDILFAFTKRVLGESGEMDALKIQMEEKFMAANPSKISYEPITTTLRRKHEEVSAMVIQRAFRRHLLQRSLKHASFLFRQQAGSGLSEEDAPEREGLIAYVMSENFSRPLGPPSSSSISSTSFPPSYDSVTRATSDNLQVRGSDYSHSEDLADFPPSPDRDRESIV
# hH1 sodium channel = molecular target: T1, hH1 sodium channel (Homo sapiens, UniProt Q14524); assay: Inactivated state inhibition of hH1 sodium channel current (prepulse protocol); assay type: cell-based
# T1 construct: expressed in transfected cells; host or cells: HEK293
# T1 sequence (Q14524 whole entry): as the sequence (Q14524 whole entry, looked up) above
# rabbit Purkinje fibers [4] = details: cited from earlier work
# rabbit Purkinje fibers [5] = assay: Action potential duration in rabbit Purkinje fibers; assay type: cell-based; details: n=10
# Protocol: A midline thoracotomy was performed and the heart was excised as practised by those skilled in the art. […] The heart was perfused with standard bicarbonate buffered Krebs' solution known to those skilled in the art. An electrode was pulled from thin-walled filamented borosilicate glass capillary tubes having a resistance of 10 to 30 megaohms when filled with 3 M KCl. The electrode was attached to headstage mounted on an Axoclamp 2A amplifier (or a similar amplifier known to those skilled in the art). The microelectrode was brought down upon an exposed Purkinje fiber using a micromanipulator and the position was adjusted until the electrode penetrated a single Purkinje cell. The Purkinje fiber network was stimulated using a biphasic stimulation pulse and subsequent action potentials were recorded for analysis.
# [6] = methoxamine plus clofilium, no pretreatment
# [7] = 300 nM dofetilide in the presence of DMSO
structure (smiles),measurement,setting,value
CCCCCCC[N+](CC)(CC)CCCCc1ccc(Cl)cc1 [clofilium],TdP incidence (animals),"[1]; methoxamine 20 μg/kg/min plus clofilium 300 nmol/kg/min, no pretreatment",7 of 9
same,increase in QTc interval 2.5 minutes after starting clofilium,[1]; methoxamine and clofilium without any pretreatment,20±11%
same,cumulative dose of clofilium at TdP,[1]; [6],1.4 ± 0.2 mg/kg
same,time to TdP after starting clofilium infusion,[1]; [6],7.0 ± 1.3 min
same,time to first PVC after starting clofilium infusion,[1]; [6],3.3 ± 0.5 min
CCN(CC)CC(=O)Nc1c(C)cccc1C [lidocaine],termination of EADs induced by 300 nM dofetilide,[2],terminated
same,block of TTX-sensitive early current Iearly(TTX),[3],41±2.7%
same,block of TTX-sensitive late current Ilate(TTX),[3],73±2.8%
same,block of TTX-sensitive sustained current Isus(TTX),[3],70±2.5%
same,hH1 inhibition with longer prepulses (inactivated state inhibition),hH1 sodium channel,enhanced inhibition
"NC1=N[C@H](O)[C@H]2[C@H]3O[C@]4(O)O[C@@H]([C@@H](O)[C@@]2(N1)[C@@H]4O)[C@]3(O)CO [TTX, tetrodotoxin]",block of unsubtracted Iearly,[3],completely
CN(CCOc1ccc(NS(C)(=O)=O)cc1)CCc1ccc(NS(C)(=O)=O)cc1 [dofetilide],increase of APD90,"rabbit Purkinje fibers [4]; 10 nM, BCL=1000 ms",83%
same,increase in APD90,rabbit Purkinje fibers [5]; [7],92%
same,percentage increase in APD50,rabbit Purkinje fibers [5]; [7],86%
same,Vmax,rabbit Purkinje fibers [5]; dofetilide and DMSO,253±48 V/s
C=C[C@H]1C[N@@]2CC[C@H]1C[C@@H]2[C@@H](O)c1ccnc2ccc(OC)cc12 [quinidine],increase of APD90,rabbit Purkinje fibers [4]; 10 μM,93%
